Data reported in ChEMBL document CHEMBL1201862, “PubChem BioAssay data set” (2004).
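Where inhibition never reached the appropriate level, the endpoint shown equals the highest concentration tested. Otherwise, values were interpolated linearly from a five-concentration, 48-hour dose response in 96-well plates. GI50 = concentration required for 50% inhibition of growth.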 Calls of active or inactive are those of the source. Cut-off read from the data, not from the text of the source: active = GI50 up to about 1.1 µM and inactive = higher.

Legend:
Assay in all cases: growth of human tumour cells (NCI), 48 h
[1] = tested on: A498
[2] = tested on: CAKI-1
[3] = tested on: CCRF-CEM
[4] = tested on: HT-29
[5] = tested on: K562
[6] = tested on: LOX IMVI
[7] = tested on: NCI-H23
[8] = tested on: NCI-H460
[9] = tested on: NCI-H522
[10] = tested on: OVCAR-4
[11] = tested on: RPMI-8226
[12] = tested on: SF-539
[13] = tested on: SN12C
[14] = tested on: SNB-19
[15] = tested on: SNB-75
[16] = tested on: UACC-257
[17] = tested on: DU-145
[18] = tested on: NCI/ADR-RES
[19] = tested on: PC-3

Row | SMILES | GI50 [1] | GI50 [2] | GI50 [3] | GI50 [4] | GI50 [5] | GI50 [6] | GI50 [7] | GI50 [8] | GI50 [9] | GI50 [10] | GI50 [11] | GI50 [12] | GI50 [13] | GI50 [14] | GI50 [15] | GI50 [16] | GI50 [17] | GI50 [18] | GI50 [19]
1 | Cn1c2c([N+](=O)[O-])[se]nc2c(=O)n1-c1ccc([N+](=O)[O-])cc1 | 11.4 µM (inactive) | 1.94 µM (inactive) | 0.627 µM (active) | 2.74 µM (inactive) | 0.0664 µM (active) | 2.61 µM (inactive) | 1.98 µM (inactive) | 2.31 µM (inactive) | 1.7 µM (inactive) | 0.447 µM (active) | 1.82 µM (inactive) | 1.88 µM (inactive) | 1.71 µM (inactive) | 6.01 µM (inactive) | 4.03 µM (inactive) | 1.96 µM (inactive) |  |  | 
2 | O=c1[nH]nc(NNc2ccccc2)c2nnn(C3CCCCC3)c12 |  | > 100 µM (inactive) | > 100 µM (inactive) | > 100 µM (inactive) | > 100 µM (inactive) | > 100 µM (inactive) | > 100 µM (inactive) | 77.6 µM (inactive) |  | > 100 µM (inactive) | > 100 µM (inactive) |  | > 100 µM (inactive) | > 100 µM (inactive) |  | > 100 µM (inactive) | > 100 µM (inactive) | > 100 µM (inactive) | > 100 µM (inactive)
3 | C=C1CCCC(C)(C)[C@@H]1CC/C(C)=C/Cn1c2cccc(=O)c-2nc2ccccc21 | 3.52 µM (inactive) | 1.77 µM (inactive) | 0.406 µM (active) | 1.77 µM (inactive) | 1.07 µM (active) | 1.15 µM (inactive) | 1.52 µM (inactive) | 1.21 µM (inactive) |  | 1.81 µM (inactive) | 2.04 µM (inactive) | 1.66 µM (inactive) | 1.59 µM (inactive) | 4.51 µM (inactive) | 1.41 µM (inactive) | 1.96 µM (inactive) |  | 0.656 µM (active) | 
4 | CC1=C(Oc2ccccc2)C(CCC(=O)O)c2c(O)cc(Cl)c(O)c21 (stereo unspecified) | > 100 µM (inactive) | > 100 µM (inactive) | > 100 µM (inactive) |  | > 100 µM (inactive) | > 100 µM (inactive) | > 100 µM (inactive) | > 100 µM (inactive) | > 100 µM (inactive) | > 100 µM (inactive) | > 100 µM (inactive) | > 100 µM (inactive) | > 100 µM (inactive) | > 100 µM (inactive) |  | > 100 µM (inactive) |  |  | 
5 | O=C(O)CCC(=O)N1c2ccccc2CC1c1c[nH]c2ccccc12 (stereo unspecified) | > 100 µM (inactive) | > 100 µM (inactive) | > 100 µM (inactive) | > 100 µM (inactive) | > 100 µM (inactive) | > 100 µM (inactive) | > 100 µM (inactive) | > 100 µM (inactive) | 76.6 µM (inactive) | > 100 µM (inactive) | > 100 µM (inactive) | > 100 µM (inactive) | > 100 µM (inactive) | > 100 µM (inactive) | > 100 µM (inactive) | > 100 µM (inactive) |  |  | 
6 | COc1cc(CCc2ccc(OCCN(C)C)cc2)cc(OC)c1OC | 76 µM (inactive) | > 100 µM (inactive) | > 100 µM (inactive) | 34.2 µM (inactive) | 39.5 µM (inactive) | 34.8 µM (inactive) |  | > 100 µM (inactive) | 83.8 µM (inactive) | > 100 µM (inactive) | 28.6 µM (inactive) | > 100 µM (inactive) | > 100 µM (inactive) | > 100 µM (inactive) | 45.1 µM (inactive) | 72.4 µM (inactive) |  |  | 
7 | CCCCCCCCCCCCCCCCNCCCN(C)CCCN | 18.2 µM (inactive) | 18.1 µM (inactive) |  | 19.3 µM (inactive) | 20 µM (inactive) | 19.9 µM (inactive) | 18.9 µM (inactive) | 17.7 µM (inactive) | 17.3 µM (inactive) | 18.8 µM (inactive) | 20.2 µM (inactive) | 17.8 µM (inactive) | 20 µM (inactive) | 17.1 µM (inactive) | 18.2 µM (inactive) | 22 µM (inactive) |  |  | 
8 | O=c1c(-c2ccccc2)c(SCCCN2CCN(c3cccc(Cl)c3)CC2)n(-c2ccccc2)c(=S)n1-c1ccccc1 | > 100 µM (inactive) | 25.6 µM (inactive) | > 100 µM (inactive) | 80.9 µM (inactive) | > 100 µM (inactive) | > 100 µM (inactive) | > 100 µM (inactive) | > 100 µM (inactive) | > 100 µM (inactive) | 23.3 µM (inactive) | > 100 µM (inactive) | > 100 µM (inactive) |  |  | > 100 µM (inactive) | > 100 µM (inactive) | > 100 µM (inactive) | > 100 µM (inactive) | > 100 µM (inactive)
9 | CCCc1onc(CCC(=O)N(Cc2ccccc2)Cc2ccccc2)c1CC | > 100 µM (inactive) | > 100 µM (inactive) | > 100 µM (inactive) | > 100 µM (inactive) | > 100 µM (inactive) | > 100 µM (inactive) | > 100 µM (inactive) | > 100 µM (inactive) | > 100 µM (inactive) | > 100 µM (inactive) | > 100 µM (inactive) |  | > 100 µM (inactive) |  |  | > 100 µM (inactive) |  |  | 
10 | Cc1cc(C)nc(NS(=O)(=O)c2ccc(Nc3c4ccccc4nc4c(C(=O)N5CCN(CCOS(C)(=O)=O)CC5)ccc(Cl)c34)cc2)n1 | > 100 µM (inactive) | > 100 µM (inactive) | > 100 µM (inactive) | > 100 µM (inactive) | > 100 µM (inactive) |  | > 100 µM (inactive) | > 100 µM (inactive) |  | > 100 µM (inactive) | > 100 µM (inactive) | > 100 µM (inactive) | > 100 µM (inactive) | > 100 µM (inactive) | > 100 µM (inactive) | > 100 µM (inactive) |  |  | 
11 | C[C@@]12CC[C@H]3[C@@H]4CCC(=O)N[C@@]4(C)CC[C@@H]3[C@@]1(C)CC[C@H](OC(=O)Cc1ccc(N(CCCl)CCCl)cc1)C2 | 18.7 µM (inactive) | 16.5 µM (inactive) | 11.5 µM (inactive) | 14.7 µM (inactive) | 19.5 µM (inactive) | 13.8 µM (inactive) | 15.1 µM (inactive) | 13.7 µM (inactive) | 17.7 µM (inactive) | 18.2 µM (inactive) | 18.4 µM (inactive) | 17.3 µM (inactive) | 14.2 µM (inactive) | > 10 µM (inactive) | 18.3 µM (inactive) | 24.8 µM (inactive) |  | 18.3 µM (inactive) | 
12 | Cn1c(=O)nc2n(-c3ccc(F)cc3)c3ccccc3nc-2c1=O | 32.6 µM (inactive) | 28.8 µM (inactive) | 26.6 µM (inactive) | 14.1 µM (inactive) | 19.9 µM (inactive) |  | 20 µM (inactive) | 18.2 µM (inactive) | 16.1 µM (inactive) | 14.4 µM (inactive) | 25.2 µM (inactive) | 21.3 µM (inactive) | 20.5 µM (inactive) | 13.9 µM (inactive) | 31 µM (inactive) | 14.4 µM (inactive) |  |  | 
13 | CCN(CC)CCSc1nc2cccc([N+](=O)[O-])c2[nH]1 |  | > 100 µM (inactive) | > 100 µM (inactive) | > 100 µM (inactive) | > 100 µM (inactive) | > 100 µM (inactive) | > 100 µM (inactive) |  | > 100 µM (inactive) | > 100 µM (inactive) | > 100 µM (inactive) | > 100 µM (inactive) | > 100 µM (inactive) |  | > 100 µM (inactive) | > 100 µM (inactive) |  |  | 
